Patent US20250049036A1 (priority 2021, published 2025)

How the values were obtained:
Parastagonospora nodorum = Parastagonospora nodorum (PARANO) spore growth inhibition in liquid medium, 96-well microtiter plate, OD 600; assay type: cell-based; conditions: spore suspension in PDB liquid medium, 18° C., 5-6 days, OD at 600, read-out: control compared to the untreated check
Procedure: Potato dextrose (PDB) liquid medium (Difco) containing a PARANO (10^5 spores/ml) spore suspension was prepared. For the inhibition assay, each test compound was solved in dimethyl sulfoxide. 100 μl of the test compound in media-solution was added to a 96-well microtiter plate, consequently, the same volume (100 μl) of spore suspension was added to the well making the final test concentrations and the plate was incubated at 18° C. for 5-6 days. The growth inhibition was evaluated by measuring the OD at 600. Percent inhibition was calculated with the below formula: […]

Pyricularia oryzae = experiment: microbe, parasite or virus in culture; assay type: cell-based; conditions: 168 h, read-out: control compared to the untreated check
Colletotrichum capsici = Colletotrichum capsici (anthracnose) mycelial radial growth on potato dextrose agar; assay type: cell-based; conditions: Colletotrichum truncatum, 168 h, 25° C., seven days, read-out: control compared to the untreated check
Procedure: The compounds were dissolved in 0.3% dimethyl sulfoxide and then added to potato dextrose agar medium just prior to dispensing it into petri dishes. 5 mL medium, with the compound in the desired concentration, was dispensed into 60 mm sterile petri-plates. After solidification, each plate was seeded with a 5 mm size mycelial disc taken from the periphery of an actively growing virulent culture plate. The plates were incubated in growth chambers at 25° C. temperature and 60% relative humidity for seven days and the radial growth was measured and compared to the one of the untreated control.

Phakopsora pachyrhizi = Phakopsora pachyrhizi test on soybean, preventive, greenhouse; assay type: in vivo; conditions: preventive spray on soybean, inoculated one day after treatment, read-out: control (efficacy, disease severity) compared to the untreated check
Procedure: The respective compound was dissolved in 2% dimethyl sulfoxide/acetone and then mixed with water containing emulsifier to the calibrated spray volume of 30 mL. Each spray solution was poured into a spray bottle for further application.
To test the preventive activity of a compound, healthy young soybean plants, raised in the greenhouse, were sprayed with the active compound preparation at the stated application rate inside the spray cabinets using hollow cone nozzles. One day after treatment, the plants were inoculated with a conidial suspension containing 2×10^5 Phakopsora pachyrhizi inoculum. The inoculated plants were then kept in a greenhouse chamber at 22-24° C. temperature and 80-90% relative humidity for disease expression.

| SMILES | inhibition of growth at 300 ppm (Parastagonospora nodorum) | inhibition of growth at 300 ppm (Pyricularia oryzae) | inhibition of growth at 300 ppm (Colletotrichum capsici) | pest or weed control at 500 ppm (Phakopsora pachyrhizi) |
| --- | --- | --- | --- | --- |
| O=C(NC1(C(F)(F)F)CC1)c1cnc2ccsc2c1 [Compound 108, N-(1-(trifluoromethyl)cyclopropyl)thieno [3,2-b]pyridine-6-carboxamide] | ≥ 70% | ≥ 70% |  |  |
| CSc1ccc(C(NC(=O)c2cnc3c(ccn3C)c2)C(C)C)cc1 (centres unmarked) [Compound 90] | ≥ 70% |  | ≥ 70% |  |
| C=C(C)CC(C)(Cc1ccc(F)cc1)NC(=O)c1cnc2c(ccn2C)c1 (centres unmarked) [Compound 181, N-(1-(4-fluorophenyl)-2,4-dimethylpent-4-en-2-yl)-1-methyl-1H-pyrrolo[2,3-b]pyridine-5-carboxamide] | ≥ 70% |  | ≥ 70% |  |
| CC(c1ccccc1F)C(C)(C)NC(=O)c1cnc2c(c1)c(C1CC1)cn2C (centres unmarked) [Compound 65, 3-cyclopropyl-N-(3-(2-fluorophenyl)-2-methylbutan-2-yl)-1-methyl-1H-pyrrolo[2,3-b]pyridine-5-carboxamide] |  | ≥ 70% |  | ≥ 70% |
| CN(C(=O)c1cnc2c(c1)c(Cl)cn2C)C(C)(C)Cc1ccccc1 [Compound 56, 3-chloro-N,1-dimethyl-N-(2-methyl-1-phenylpropan-2-yl)-1H-pyrrolo[2,3-b] pyridine-5-carboxamide] | ≥ 70% | ≥ 70% |  | ≥ 70% |
| C=C(C)CC(C)(COc1ccccc1F)NC(=O)c1cnc2c(c1)c(Br)cn2C (centres unmarked) [Compound 176, 3-bromo-N-(1-(2-fluorophenoxy)-2,4-dimethylpent-4-en-2-yl)-1-methyl-1H-pyrrolo[2,3-b]pyridine-5-carboxamide] | ≥ 70% | ≥ 70% |  |  |
| C[C@H](NC(=O)c1cnc2c(ccn2C)c1)C(O)(c1cc(Cl)cc(Cl)c1)c1cc(Cl)cc(Cl)c1 [Compound 141] |  | ≥ 70% |  | ≥ 70% |
| Cn1ccc2cc(C(=O)NC(C)(C)C(O)Cc3ccccc3)cnc21 (centres unmarked) [Compound 116, N-(3-hydroxy-2-methyl-4-phenylbutan-2-yl)-1-methyl-1H-pyrrolo[2,3-b]pyridine-5-carboxamide] |  |  | ≥ 70% |  |
| Cn1ccc2cc(C(=O)NC(C)(C)Cc3ccc(Cl)c(Cl)c3)cnc21 [Compound 24, N-(1-(3,4-dichlorophenyl)-2-methylpropan-2-yl)-1-methyl-1H-pyrrolo[2,3-b]pyridine-5-carboxamide] |  | ≥ 70% |  | ≥ 70% |
| Cn1cc(Br)c2cc(C(=O)NC(C)(C)Cc3ccccc3F)cnc21 [Compound 58, 3-bromo-N-(1-(2-fluorophenyl)-2-methylpropan-2-yl)-1-methyl-1H-pyrrolo[2,3-b]pyridine-5-carboxamide] |  | ≥ 70% |  | ≥ 70% |
| CC(C)CC(C)(Cc1ccccc1)NC(=O)c1cc2c(nc1Cl)CCC2 (centres unmarked) [Compound 211, 2-chloro-N-(2,4-dimethyl-1-phenylpentan-2-yl)-6,7-dihydro-5H-cyclopenta[b]pyridine-3-carboxamide] | ≥ 70% |  | ≥ 70% |  |
| Cc1ccc(F)cc1C(O)C(C)(C)NC(=O)c1cnc2ccsc2c1 (centres unmarked) [Compound 133, N-(1-(5-fluoro-2-methylphenyl)-1-hydroxy-2-methylpropan-2-yl)thieno[3,2-b] pyridine-6-carboxamide] |  | ≥ 70% |  | ≥ 70% |
| Cn1cc(Cl)c2cc(C(=O)NC(C)(C)COCc3cc(F)ccc3Cl)cnc21 [Compound 214, 3-chloro-N-(1-((2-chloro-5-fluorobenzyl)oxy)-2-methylpropan-2-yl)-1-methyl-1H-pyrrolo[2,3-b]pyridine-5-carboxamide] |  | ≥ 70% |  |  |
| Cn1cc(Cl)c2cc(C(=O)NC(C)(C)COc3ccnc(Cl)c3)cnc21 [Compound 220, 3-chloro-N-(1-((2-chloropyridin-4-yl)oxy)-2-methylpropan-2-yl)-1-methyl-1H-pyrrolo[2,3-b]pyridine-5-carboxamide] |  | ≥ 70% |  |  |
